Patent publication US8003812B2, “C10 cyclopentyl ester substituted taxanes” (priority 2004, dated 2011)
Where “and” joins values, the source holds several entries; their conditions need not be identical. Equal entries are not always repeated.

Experiments:
[1] = test system: Sprague-Dawley rats; assay: In vivo toxicity assessment in rats, oral; design: species or system rat; key to Neu Tox score: N (0); −10: Y (1-4); key to PTL R (Recovery) score / L/W Dia score / B/M Dia score / BW R (Recovery) score / WBC R (Recovery) score: −5: N; 0: Y; conditions: oral; for Total Score AVE: average of 3 rats; for Total Score: per rat, maximum 130; for Group score = average of 3 rats/13: scale 0 to 10; for ALT score / AST score / B/M Dia score / BW score / L/W Dia score / Neu Tox score / WBC R (Recovery) score / WBC score / BUN score / BW R (Recovery) score / PTL R (Recovery) score / PTL score: score per rat
Procedure: (§1) Toxicity was assessed in 250-300g Sprague-Dawley rats and three rats were used per dose group. Three dose groups of the test compound, (i.e., 3 mg/kg, 9 mg/kg and 12 mg/kg for intravenous administration; 15 mg/kg, 30 mg/kg and 40 mg/kg) and 1 control group constituted a study. Animals were observed and clinical chemistry data collected at days 4 and 10. Rats were euthanized on day 11 and the nerves were excised and fixed upon euthanization for further examination.
(§2) Each rat is scored as described below and a final toxicity score that incorporates all parameters is assigned. A dead rat is assigned a score of zero. Most of the parameters contribute a positive value towards a total possible score of 130. For body weight, white blood cell, and platelet decreases, recovery is considered. […] The total score is divided by 13 to put it on a scale from 0 to 10.

[2] = test system: Sprague-Dawley rats; assay: In vivo toxicity assessment in rats, intravenous
Procedure: as §1, §2

[3] = IV, second IV 9091 line (two IV dosage regimens)

## CC(=O)OC12COC1CC(O)C1(C)C(=O)C(OC(=O)C3CCCC3)C3=C(C)C(OC(=O)C(O)C(NC(=O)OC(C)C)c4cccs4)CC(O)(C(OC(=O)c4ccccc4)C21)C3(C)C (centres unmarked) [Compound 9091]
[1]
  toxicity profile in the oral rat studies compared with congener: better toxicity profile
[1]; High Dose 40 mg/kg
  Total Score AVE: 60
  Group score = average of 3 rats/13: 4.62
  ALT score: 20 (<1.25Xcont)
  AST score: 20 (<1.25Xcont)
  B/M Dia score: 0
  BW score: 0 (≧20%)
  L/W Dia score: 0
  Neu Tox score: −10
  WBC R (Recovery) score: 0
  WBC score: 0 (≧50%)
[1]; High Dose 40 mg/kg, 40 mg/kg
  Total Score: 55 and 65 and 60
  BUN score: 10 (≧1.25Xcont) and 20 (<1.25Xcont) (2×)
  BW R (Recovery) score: 0 and −5 (2×)
  PTL R (Recovery) score: −5 and 0 (2×)
  PTL score: 20 (<25%) (2×) and 5 (≧50%)
[1]; Low Dose 15 mg/kg
  Total Score AVE: 96.7
  Group score = average of 3 rats/13: 7.44
  ALT score: 20 (<1.25Xcont)
  AST score: 20 (<1.25Xcont)
  B/M Dia score: 5
  BUN score: 20 (<1.25Xcont)
  BW R (Recovery) score: 0
  L/W Dia score: 0
  Neu Tox score: −10
  PTL R (Recovery) score: 0
  WBC R (Recovery) score: 0
[1]; Low Dose 15 mg/kg, 15 mg/kg
  Total Score: 110 and 85 and 95
  BW score: 20 (<10%) (2×) and 10 (≧10%)
  PTL score: 20 (<25%) (2×) and 10 (≧25%)
  WBC score: 5 (≧25%) and 0 (≧50%) (2×)
[1]; Mid Dose 30 mg/kg
  Total Score AVE: 86.7
  Group score = average of 3 rats/13: 6.67
  ALT score: 20 (<1.25Xcont)
  AST score: 20 (<1.25Xcont)
  B/M Dia score: 0
  BUN score: 20 (<1.25Xcont)
  BW R (Recovery) score: 0
  L/W Dia score: 0
  Neu Tox score: −10
  PTL R (Recovery) score: 0
  PTL score: 20 (<25%)
  WBC R (Recovery) score: 0
[1]; Mid Dose 30 mg/kg, 30 mg/kg
  Total Score: 85 and 95 and 80
  BW score: 5 (≧15%) and 10 (≧10%) (2×)
  WBC score: 0 (≧50%) (2×) and 5 (≧25%)
[2]; IV, scale 0 to 10
  Tox Score, Dose 3 mg: 9
  Tox Score, Dose 9 mg: 7.1
  Tox Score, Dose 12 mg: 7.8
[2]; [3]
  Tox Score, Dose 3 mg: 9.5
  Tox Score, Dose 9 mg: 8.1
  Tox Score, Dose 12 mg: 6.8
  Tox Score, Average: 8.1
  Tox Score, Weighted Avg: 7.6
[2]; IV, Wt Avg = (Σ(dose × grp score))/24
  Tox Score, Weighted Avg: 7.7
[2]; IV, average of 3 dose groups
  Tox Score, Average: 7.9
[2]; IV, second of two values printed for 9091 (two IV regimens)
  Rat tox score IV (second value in cell): 8, 8
[2]; IV, summary score, scale 0 to 10
  Rat tox score IV: 8, 8
[2]; administered intravenously
  toxicity profile in rats compared with congeners: best toxicity profile
